Five molecules from ChEMBL document CHEMBL5257127, “SolS-catalyzed sulfoxidation of labionin to solabionin drives antibacterial activity of solabiomycins” (2023) can be followed below.

≈ marks a conversion by molar mass, not a printed value. Calls of active or inactive are those of the source. The calls are words filed in the database; no cut-off is given here.

The subject of test [1] is Mycolicibacterium smegmatis. Description: Antibacterial activity against Mycolicibacterium smegmatis assessed as bacterial growth inhibition at 20 nmol by paper disc diffusion assay. Type of test: functional, organism-based. For orientation: In agar diffusion tests the substance spreads into inoculated agar from a disc or well.
Test [2] concerns Micrococcus luteus. Description: Antibacterial activity against Micrococcus luteus assessed as bacterial growth inhibition at 20 nmol by paper disc diffusion assay. Type of test: functional, organism-based.
Test [3] deals with Staphylococcus aureus. The test is described as follows: Antibacterial activity against Staphylococcus aureus assessed as bacterial growth inhibition at 20 nmol by paper disc diffusion assay. Type of test: functional, organism-based.
The test system of test [4] is Escherichia coli. Description: Antibacterial activity against Escherichia coli assessed as bacterial growth inhibition at 20 nmol by paper disc diffusion assay. The format is functional, organism-based.
In test [5] the test system is Escherichia coli. The test is described as follows: Antibacterial activity against Escherichia coli RFM795 harboring lptD gene mutation assessed as bacterial growth inhibition at 20 nmol by paper disc diffusion assay. Type of test: functional, organism-based.
The subject of test [6] is Streptomyces sp. Description: Antibacterial activity against Streptomyces sp. assessed as bacterial growth inhibition at 20 nmol by paper disc diffusion assay. The format is functional, organism-based.
For a further test, the system named is Streptomyces lydicus. The test is described as follows: Antibacterial activity against Streptomyces lydicus assessed as bacterial growth inhibition at 20 nmol by paper disc diffusion assay. The format is functional, organism-based.
Another test deals with Streptomyces nigrescens. Description: Antibacterial activity against Streptomyces nigrescens HEK616 assessed as bacterial growth inhibition at 20 nmol by paper disc diffusion assay. The format is functional, organism-based.
In test [7] the test system is Mycolicibacterium smegmatis. Description: Antibacterial activity against Mycolicibacterium smegmatis assessed as bacterial growth inhibition by paper disc diffusion assay. Type of test: functional.
Test [8] has as its system Micrococcus luteus. The test is described as follows: Antibacterial activity against Micrococcus luteus assessed as bacterial growth inhibition by paper disc diffusion assay. Type of test: functional.
The subject of test [9] is Staphylococcus aureus. The test is described as follows: Antibacterial activity against Staphylococcus aureus assessed as bacterial growth inhibition by paper disc diffusion assay. Type of test: functional.
In test [10] the test system is Mycobacterium tuberculosis. Description: Antibacterial activity against Mycobacterium tuberculosis H37Rv assessed as bacterial growth inhibition. Type of test: functional.
For test [11], the system named is Streptomyces sp. Description: Antibacterial activity against Streptomyces sp. TP-A0584 assessed as bacterial growth inhibition at 20 nmol by paper disc diffusion assay. The format is functional, organism-based.
The test system of a further test is Candida albicans. The test is described as follows: Antifungal activity against Candida albicans assessed as fungal growth inhibition at 20 nmol by paper disc diffusion assay. Type of test: functional, organism-based.
Another test deals with Saccharomyces cerevisiae. The test is described as follows: Antifungal activity against Saccharomyces cerevisiae assessed as fungal growth inhibition at 20 nmol by paper disc diffusion assay. The format is functional, organism-based.

`C/C=C1/NC(=O)C(NC(=O)CNC(=O)CCCCCCCCCCCCNC(=N)N)CC2(CSCC(C(=O)O)NC(=O)CNC(=O)CNC2=O)NC(=O)[C@H]([C@@H](C)CC)NC1=O` (stereo not given in full): the outcome (in test [1]; in the test on Micrococcus luteus [2]; in the test on Staphylococcus aureus [3]; in the test with Escherichia coli [4]; in the test on Streptomyces sp. [6]) was Active. Besides, the outcome in the test on Escherichia coli [5], with Streptomyces lydicus and with Streptomyces nigrescens was inactive. Besides, the figures for the MIC (in test [7]; with Micrococcus luteus [8]; in the test on Staphylococcus aureus [9]) were 25.6 µM (≈ 22.5 µg/mL), 51.2 µM (≈ 45.1 µg/mL) and 51.2 µM (≈ 45.1 µg/mL), respectively.
Turning to `C/C=C1/NC(=O)C(NC(=O)CNC(=O)CCCCCCCCCCCCNC(=N)N)CC2(C[S+]([O-])CC(C(=O)O)NC(=O)CNC(=O)CNC2=O)NC(=O)[C@H](C(C)C)NC1=O` (stereo not given in full), the minimal inhibitory concentration (MIC) (as a rule, the lowest concentration found to suppress growth) amounted to 0.35 µM (≈ 0.309 µg/mL) in [10], 25.6 µM (≈ 22.6 µg/mL) in test [7], 25.6 µM (≈ 22.6 µg/mL) in the test on Micrococcus luteus [8] and 51.2 µM (≈ 45.2 µg/mL) in the test on Staphylococcus aureus [9]. The outcome (in [1]; with Micrococcus luteus [2]; in the test on Staphylococcus aureus [3]; in the test with Escherichia coli [4]; in the test on Streptomyces sp. [6]; with Streptomyces sp. [11]) was Active. In addition, the result in the test with Escherichia coli [5], in the test on Streptomyces lydicus, in the test on Streptomyces nigrescens, with Candida albicans and with Saccharomyces cerevisiae was inactive.
Take `C/C=C1/NC(=O)C(NC(=O)CNC(=O)CCCCCCCCCCCCNC(=N)N)CC2(CSCC(C(=O)O)NC(=O)CNC(=O)CNC2=O)NC(=O)[C@H](C(C)C)NC1=O` (stereo not given in full): the outcome (in [1]; in the test with Micrococcus luteus [2]; in the test on Staphylococcus aureus [3]; in the test with Escherichia coli [4]; in the test on Streptomyces sp. [6]) was Active. Also, the outcome in the test on Escherichia coli [5], in the test on Streptomyces lydicus and in the test on Streptomyces nigrescens was inactive. For the same molecule, the minimal inhibitory concentration (MIC) in test [7] is 51.2 µM (≈ 44.3 µg/mL); in the test on Micrococcus luteus [8] it was 102 µM (≈ 88.7 µg/mL); with Staphylococcus aureus [9] it was 102 µM (≈ 88.7 µg/mL).
As to `NC[C@H]1O[C@H](O[C@H]2[C@H](O)[C@@H](O[C@H]3O[C@H](CO)[C@@H](O)[C@H](N)[C@H]3O)[C@H](N)C[C@@H]2N)[C@H](O)[C@@H](O)[C@@H]1O` [KANAMYCIN], the minimum inhibitory concentration (MIC) turned out to be 1.6 µM (≈ 0.775 µg/mL) in test [7], 12.8 µM (≈ 6.2 µg/mL) in the test on Micrococcus luteus [8] and 0.2 µM (≈ 0.0969 µg/mL) in the test on Staphylococcus aureus [9].
As for `C/C=C1/NC(=O)C(NC(=O)CNC(=O)CCCCCCCCCCCCNC(=N)N)CC2(C[S+]([O-])CC(C(=O)O)NC(=O)CNC(=O)CNC2=O)NC(=O)[C@H]([C@@H](C)CC)NC1=O` (stereo not given in full), the MIC in test [10] is 0.35 µM (≈ 0.314 µg/mL); in test [7] it was 6.4 µM (≈ 5.73 µg/mL); with Micrococcus luteus [8], 12.8 µM (≈ 11.5 µg/mL); in the test with Staphylococcus aureus [9], 12.8 µM (≈ 11.5 µg/mL). In addition, the outcome (in test [1]; with Micrococcus luteus [2]; in the test with Staphylococcus aureus [3]; in the test with Escherichia coli [4]; with Streptomyces sp. [6]; in the test with Streptomyces sp. [11]) was Active. Moreover, the outcome in the test with Escherichia coli [5], in the test with Streptomyces lydicus, in the test on Streptomyces nigrescens, in the test with Candida albicans and in the test with Saccharomyces cerevisiae was inactive.
